One test has as its system HIV-1LAI. Kind of test: H9 assay with wild-type HIV-1LAI (AlamarBlue, supernatant infection). Type of test: cell-based. As to conditions: Human immunodeficiency virus 1, H9 cells, 10% FCS. On the procedure:
For the mixture for a 96-well MTP, 3 million PBLs are pelleted, suspended in 1 ml of RPMI 1640 medium/10% FCS and incubated together with a suitable amount of HIV-1LAI (NIH AIDS Research & Reference Reagent Program, Germantown, USA) at 37° C. for 2 hours (pellet infection). Unadsorbed viruses are subsequently washed out with PBS, and the infected cells are pelleted again and suspended in 18 ml of RPMI 1640 medium/10% FCS/interleukin-2 (40 U/ml). 180 μl thereof are pipetted into each well of a white 96-well MTP with 20 μl of test substance in suitable dilution. Alternatively, after preparation of the substance dilutions in the MTP, the HIV is pipetted in together with the cells and is not washed out again (supernatant infection). In order to avoid edge effects, the wells at the edge of the MTP are not used for substance dilutions. The second vertical row of the MTP contains only infected cells (virus control) and the eleventh vertical row only uninfected cells (cell control), in each case in RPMI 1640 medium/10% FCS/interleukin-2 (40 U/ml). The other wells of the MTP contain the compounds of the invention in various concentrations starting from the third vertical row, from which the test substances are diluted in 3-fold steps up to the tenth vertical row 3^7-fold. The test substances are dissolved in DMSO, whereby the final DMSO concentration in the test mixture is 1%. The test mixtures are incubated at 37° C./5% CO2. After 5 and 7 days, 50 μl of cell-free supernatant are removed from each well to determine the amount of p24 present by means of a p24 ELISA (HIV-1 p24^CA Antigen Capture Assay Kit, NCI-Frederick Cancer Research and Development Center, Frederick, USA). From the resulting values of the photometric evaluation (450/620 nm) the EC50 values of the test substances are determined as the concentration at which the amount of p24 is 50% of the untreated infected cells.
Alternatively, H9 cells (ATCC, Wesel, Germany) are employed instead of PBLs for testing the test substances. H9 cells are incubated in RPMI 1640 medium with 2% or 10% FCS as a HIV-1LAI supernatant infection at 37° C./5% CO2, (20 μl of substance dilution and 80 μl of cells/virus per well) in accordance with the pattern described above for 5 days. Subsequently, 10 μl of AlamarBlue (Invitrogen, Karlsruhe, Germany) are added to each well, and the MTPs are incubated at 37° C. for 3 hours before the fluorimetric evaluation takes place (544/590 nm). The resulting values are about 40 000 for the untreated uninfected cells and about 7000 for the untreated infected cells. In the low concentration range, the EC50 values of the test substances are determined as the concentration at which the fluorescence is 50% of the untreated uninfected cells (in each case subtracting the values of the untreated infected cells). In addition, in the high concentration range, the CC50 values of the test substances are determined as the concentration at which the fluorescence is 50% of the untreated uninfected cells (in each case subtracting the values of the untreated infected cells).
A general note: The colour change of resazurin is a common sign of viable cells or microbes.

The next test has as its system HIV-1NL4-3 wt. Kind of test: Light assay with wild-type HI reporter virus in MT4 7F2 cells. The format is cell-based. As to conditions: Human immunodeficiency virus 1, read-out: EC50(nM) MT4 7F2 cells HIV-1NL4-3 wt 2% FCS. On the procedure: (§1) For the mixture for a 96-well MTP, 3 million MT4 7F2 cells are pelleted, suspended in 1 ml of RPMI 1640 medium without phenol red (Invitrogen, Karlsruhe, Germany)/10% FCS/10% AIM-V (Invitrogen, Karlsruhe, Germany) and incubated together with a suitable amount of the corresponding HIV-1NL4-3 reporter virus at 37° C. for 2 hours (pellet infection). Unadsorbed viruses are subsequently washed out with PBS, and the infected cells are pelleted again and suspended in 8 ml of RPMI 1640 medium without phenol red/2% or 10% FCS/10% AIM-V. 80 μl thereof are pipetted into each well of a white 96-well MTP with 20 μl of test substance in suitable dilution. To avoid edge effects, the wells on the edge of the MTP are not used for substance dilutions. The second vertical row of the MTP contains only infected cells (virus control) and the eleventh vertical row only uninfected cells (cell control), in each case in RPMI 1640 medium without phenol red/2% or 10% FCS/10% AIM-V. The other wells of the MTP contain the compounds of the invention in various concentrations starting from the third vertical row, from which the test substances are diluted in 3-fold steps up to the tenth vertical row 3^7-fold. The test substances are dissolved in DMSO, whereby the final DMSO concentration in the test mixture is 1%. The test mixtures are incubated at 37° C./5% CO2 for five days and, after the addition of 15 μl of Lu164 substrate (5 mg/ml coelenterazine dissolved in 30 μM glutathione/DMSO, 100 mM NaCl, 1M MES, 100 mM glutathione), evaluated by luminometry. The resulting values are in the region of 1 000 000 RLUs (relative light units) for the virus control and 300 to 400 RLUs for the cell control. The EC50 values of the test substances are determined as the concentration at which the virus replication measured in RLUs is 50% of the untreated infected cells.

The next test concerns HIV-1NL4-3 K103N-Y181C. The test is described as follows: Light assay with inhibitor-resistant HI reporter virus in MT4 7F2 cells. As to conditions: Human immunodeficiency virus 1, read-out: EC50(nM) MT4 7F2 cells HIV-1NL4-3 K103N-Y181C 2% FCS. The format is cell-based. On the procedure: as §1
Another test has as its target T1, reverse transcriptase (Human immunodeficiency virus type 1 group M subtype B, UniProt P04585).
T1 construct: negative control (mixture without reverse transcriptase); purchased Roche Diagnostics GmbH, Mannheim, Germany
Kind of test: Biochemical reverse transcriptase assay (Reverse Transcriptase Assay, colorimetric, Roche). As to conditions: read-out: IC50(nM) RT assay. As to the method:
The “Reverse Transcriptase Assay, colorimetric” (Roche Diagnostics GmbH, Mannheim, Germany) is used in accordance with the manufacturer's information. The test substances are dissolved in DMSO and are used in the test diluted in 5-fold steps (final DMSO concentration 1%). The resulting values of the photometric evaluation (405/492 nm) are less than 0.1 for the negative control (mixture without reverse transcriptase) and are in the region of 1.5 for the positive control (mixture without test substance). The IC50 values of the test substances are determined as the concentration of the test substance dilution at which the measured optical density is 50% of the positive control.

Structures are written as SMILES.

Consider `N#Cc1cccc(-c2cc(C(=O)N3CNC(=O)C3)sc2-c2cc(F)cc(Cl)c2)c1` [Example 1, 3-{2-(3-Chloro-5-fluorophenyl)-5-[(4-oxoimidazolidin-1-yl)carbonyl]thiophen-3-yl}benzenecarbonitrile], for which the EC50 with HIV-1LAI is 9 nM; in the test on HIV-1NL4-3 wt it was 1 nM; in the test with HIV-1NL4-3 K103N-Y181C it was 45 nM.

Consider `O=C1CN(C(=O)c2cc(-c3ccc(F)c(Cl)c3)c(-c3cc(F)cc(Cl)c3)s2)CN1` [Example 2, 1-{[4-(3-Chloro-4-fluorophenyl)-5-(3-chloro-5-fluorophenyl)thiophen-2-yl]carbonyl}imidazolidin-4-one], for which the IC50 on reverse transcriptase stood at 920 nM. The EC50 in the test with HIV-1LAI was 68 nM; in the test on HIV-1NL4-3 wt it was 20 nM; in the test with HIV-1NL4-3 K103N-Y181C, 176 nM.

With `N#Cc1cccc(-c2cc(C(=O)N3CNC(=O)C3)sc2-c2cccc(Cl)c2)c1` [Example 3, 3-{2-(3-Chlorophenyl)-5-[(4-oxoimidazolidin-1-yl)carbonyl]thiophen-3-yl}benzenecarbonitrile], the IC50 at reverse transcriptase was 740 nM. Moreover, the EC50 in the test with HIV-1LAI worked out at 71 nM; with HIV-1NL4-3 wt, 5 nM; in the test on HIV-1NL4-3 K103N-Y181C, 100 nM.

Turning to `N#Cc1cc(-c2cc(C(=O)N3CNC(=O)C3)sc2-c2cc(F)cc(Cl)c2)ccc1F` [Example 4, 5-{2-(3-Chloro-5-fluorophenyl)-5-[(4-oxoimidazolidin-1-yl)carbonyl]thiophen-3-yl}-2-fluorobenzenecarbonitrile], the values for the EC50 in the test with HIV-1LAI, with HIV-1NL4-3 wt and with HIV-1NL4-3 K103N-Y181C were 12 nM, less than 1.5 nM and 44 nM, respectively.

For the compound `O=C1CN(C(=O)c2cc(-c3cccc(Cl)c3)c(-c3cc(F)cc(Cl)c3)s2)CN1` [Example 5, 1-{[5-(3-Chloro-5-fluorophenyl)-4-(3-chlorophenyl)thiophen-2-yl]carbonyl}imidazolidin-4-one], the IC50 on reverse transcriptase came to 2170 nM. Moreover, the EC50 in the test on HIV-1LAI was 85 nM; in the test on HIV-1NL4-3 wt, 21 nM; with HIV-1NL4-3 K103N-Y181C, 258 nM.

In the case of `N#Cc1cc(-c2sc(C(=O)N3CNC(=O)C3)cc2-c2cccc(Cl)c2)ccc1F` [Example 6, 5-{3-(3-Chlorophenyl)-5-[(4-oxoimidazolidin-1-yl)carbonyl]thiophen-2-yl}-2-fluorobenzenecarbonitrile], the EC50 with HIV-1LAI is 900 nM; in the test on HIV-1NL4-3 wt, 165 nM; in the test on HIV-1NL4-3 K103N-Y181C it was 348 nM.

`O=C1CN(C(=O)c2cc(-c3cccc(Cl)c3)c(-c3cccc(OC(F)(F)F)c3)s2)CN1` [Example 7, 1-({4-(3-Chlorophenyl)-5-[3-(trifluoromethoxy)phenyl]thiophen-2-yl}carbonyl)imidazolidin-4-one]: the EC50 in the test with HIV-1LAI came to 1410 nM; in the test with HIV-1NL4-3 wt it was 100 nM; in the test on HIV-1NL4-3 K103N-Y181C, 150 nM.

Turning to `N#Cc1cc(-c2cc(C(=O)N3CNC(=O)C3)sc2-c2cccc(Cl)c2)ccc1F` [Example 8, 5-{2-(3-Chlorophenyl)-5-[(4-oxoimidazolidin-1-yl)carbonyl]thiophen-3-yl}-2-fluorobenzenecarbonitrile], the EC50 is 103 nM in the test with HIV-1LAI, 5 nM in the test with HIV-1NL4-3 wt and 121 nM in the test on HIV-1NL4-3 K103N-Y181C.

Regarding `O=C1CN(C(=O)c2cc(-c3ccc(F)c(Cl)c3)c(-c3cccc(Cl)c3)s2)CN1` [Example 9, 1-{[4-(3-Chloro-4-fluorophenyl)-5-(3-chlorophenyl)thiophen-2-yl]carbonyl}imidazolidin-4-one], the EC50 with HIV-1LAI turned out to be 593 nM; with HIV-1NL4-3 wt, 35 nM; in the test with HIV-1NL4-3 K103N-Y181C, 260 nM.

As for `N#Cc1cc(F)cc(-c2sc(C(=O)N3CNC(=O)C3)cc2-c2ccc(F)c(Cl)c2)c1` [Example 10, 3-{3-(3-Chloro-4-fluorophenyl)-5-[(4-oxoimidazolidin-1-yl)carbonyl]thiophen-2-yl}-5-fluorobenzenecarbonitrile], the values for the EC50 in the test with HIV-1LAI, in the test on HIV-1NL4-3 wt and in the test on HIV-1NL4-3 K103N-Y181C were 34 nM, 5 nM and 40 nM, respectively.

In the case of `N#Cc1cc(F)cc(-c2sc(C(=O)N3CNC(=O)C3)cc2-c2cccc(Cl)c2)c1` [Example 11, 3-{3-(3-Chlorophenyl)-5-[(4-oxoimidazolidin-1-yl)carbonyl]thiophen-2-yl}-5-fluorobenzenecarbonitrile], the EC50 stood at 22 nM in the test with HIV-1LAI, 2 nM in the test on HIV-1NL4-3 wt and 123 nM in the test with HIV-1NL4-3 K103N-Y181C.

Usually EC50 stands for the concentration at which the effect is half-maximal. What is called IC50 is the concentration at which inhibition is half-maximal.
